Assay results: patent US12678488B2, “Batch management method for improving farrowing rate or number of piglets born alive in swine” (priority 2024, dated 2026)
Marks after values point to notes of the source that are not given here.

Test system: Landrace x Large White reserve sows
Test: Heat detection: estrus rate and estrus time in gilts, different doses (Example 2)
Assay type: in vivo, pigs
Details: gilts
Source text: Landrace x Large White reserve sows, about 230 days old, were randomly divided into a batch farrowing with FTAI and batch farrowing with FTAI combined with different doses of 1-[bis(4-cyanophenyl)methyl]-1,2,4-triazole groups, and during the experiment, the experimental sows in each group were fed regularly and gained free access to water according to the requirements of feeding management in the farm.
Referring to the dosage of 1-[bis(4-cyanophenyl)methyl]-1,2,4-triazole in clinical medicine and using standard weight-dosage conversion, the recommended dosage of 1-[bis(4-cyanophenyl)methyl]-1,2,4-triazole for sows was 50-150 μg/kg·BW/day, orally for consecutive 5 days, as derived by conversion. In addition, the applicant previously studied uniparous cows, and in the ovulation induction scheme, the reference dosage of 1-[bis(4-cyanophenyl)methyl]-1,2,4-triazole was 60-200 μg/kg·BW, administered in a single dose; furthermore, by means of conversion in conjunction with the dosage for model animals (mice) previously in the laboratory, various dosages were designed. The treatment methods of hormones and drugs for sows in each group were as follows: • batch farrowing with FTAI: the sows were fed with an altrenogest oral solution at 20 mg/animal at the same time every day, for 18 days; PMSG at 1000 IU/animal was injected intramuscularly 42 h after the last feeding with altrenogest, GnRH at 100 μg/animal was injected intramuscularly 80 h after the injection of PMSG, a first timed insemination was performed 24 h after the injection of GnRH, and a second timed insemination was performed 16 h after the first insemination.
(§1) Treatment group 1: the hormone treatment and mating schemes for gilts were the same as FTAI. The difference lay in that PMSG at 1000 IU/gilt was injected intramuscularly 42 h after the last feeding with altrenogest, and 1-[bis(4-cyanophenyl)methyl]-1,2,4-triazole at 12 μg/kg·BW/day was administered orally 8 h after the injection of PMSG, for 1 day.
as §1, with “2:” for “1:”, “2 days.” for “1 day.”
as §1, with “3:” for “1:”, “20” for “12”
as §1, with “4:” for “1:”, “sows” for “gilts”, “1-[bis (4-cyanophenyl)methyl]-1,2,4-triazole” for “1-[bis(4-cyanophenyl)methyl]-1,2,4-triazole”, “20” for “12”, “2 days.” for “1 day.”
as §1, with “5:” for “1:”, “IU/animal” for “IU/gilt”, “20” for “12”, “3 days.” for “1 day.”
as §1, with “6:” for “1:”, “IU/animal” for “IU/gilt”, “20” for “12”, “5 days.” for “1 day.”
Treatment group 7: the hormone treatment and mating schemes for gilts were the same as FTAI. […]

[1] = Example 2 Treatment group 1: 12 μg/kg·BW/day orally, 1 day
[2] = Example 2 Treatment group 2: 12 μg/kg·BW/day orally, 2 days
[3] = Example 2 Treatment group 3: 20 μg/kg·BW/day orally, 1 day
[4] = Example 2 Treatment group 4: 20 μg/kg·BW/day orally, 2 days
[5] = Example 2 Treatment group 5: 20 μg/kg·BW/day orally, 3 days
[6] = Example 2 Treatment group 6: 20 μg/kg·BW/day orally, 5 days
[7] = Example 2 Treatment group 7: 40 μg/kg·BW/day orally, 1 day
[8] = Example 2 Treatment group 8: 40 μg/kg·BW/day orally, 5 days
[9] = Example 2 Treatment group 9: 80 μg/kg·BW/day orally, 5 days
[10] = Example 2 Treatment group 10: 160 μg/kg·BW/day orally, 5 days

SMILES: N#Cc1ccc(C(c2ccc(C#N)cc2)n2cncn2)cc1 [1-[bis(4-cyanophenyl)methyl]-1,2,4-triazole]
- Estrus number [1]: 27
- Estrus rate (%) [1]: 90.00^a %
- Interval from stopping taking Altrenogest to estrus (days) [1]: 6.13 ± 0.12^b days
- Estrus number [2]: 23
- Estrus rate (%) [2]: 85.19^a %
- Interval from stopping taking Altrenogest to estrus (days) [2]: 6.07 ± 0.13^b days
- Estrus number [3]: 22
- Estrus rate (%) [3]: 88.00^a %
- Interval from stopping taking Altrenogest to estrus (days) [3]: 6.11 ± 0.12^b days
- Estrus number [4]: 21
- Estrus rate (%) [4]: 84.00^a %
- Interval from stopping taking Altrenogest to estrus (days) [4]: 6.07 ± 0.15^b days
- Estrus number [5]: 24
- Estrus rate (%) [5]: 92.31^a %
- Interval from stopping taking Altrenogest to estrus (days) [5]: 6.19 ± 0.16^b days
- Estrus number [6]: 20
- Estrus rate (%) [6]: 76.92^b %
- Interval from stopping taking Altrenogest to estrus (days) [6]: 6.70 ± 0.16^a days
- Estrus number [7]: 22
- Estrus rate (%) [7]: 84.61^a %
- Interval from stopping taking Altrenogest to estrus (days) [7]: 6.77 ± 0.14^a days
- Estrus number [8]: 4
- Estrus rate (%) [8]: 16.67^b %
- Interval from stopping taking Altrenogest to estrus (days) [8]: 6.25 ± 0.14^b days
- Estrus number [9]: 0
- Estrus rate (%) [9]: 0.00^b %
- Estrus number [10]: 0
- Estrus rate (%) [10]: 0.00^b %
- Number of estrous animals at different times after stopping Altrenogest (day/animal) (day 4.5, Example 2 Treatment group 1: 12 μg/kg·BW/day orally, 1 day): 0 animal
- Number of estrous animals at different times after stopping Altrenogest (day/animal) (day 4.5, Example 2 Treatment group 2: 12 μg/kg·BW/day orally, 2 days): 0 animal
- Number of estrous animals at different times after stopping Altrenogest (day/animal) (day 4.5, Example 2 Treatment group 3: 20 μg/kg·BW/day orally, 1 day): 0 animal
- Number of estrous animals at different times after stopping Altrenogest (day/animal) (day 4.5, Example 2 Treatment group 4: 20 μg/kg·BW/day orally, 2 days): 0 animal
- Number of estrous animals at different times after stopping Altrenogest (day/animal) (day 4.5, Example 2 Treatment group 5: 20 μg/kg·BW/day orally, 3 days): 0 animal
- Number of estrous animals at different times after stopping Altrenogest (day/animal) (day 4.5, Example 2 Treatment group 6: 20 μg/kg·BW/day orally, 5 days): 0 animal
- Number of estrous animals at different times after stopping Altrenogest (day/animal) (day 4.5, Example 2 Treatment group 7: 40 μg/kg·BW/day orally, 1 day): 0 animal
- Number of estrous animals at different times after stopping Altrenogest (day/animal) (day 4.5, Example 2 Treatment group 8: 40 μg/kg·BW/day orally, 5 days): 0 animal
- Number of estrous animals at different times after stopping Altrenogest (day/animal) (day 5, Example 2 Treatment group 1: 12 μg/kg·BW/day orally, 1 day): 1 animal
- Number of estrous animals at different times after stopping Altrenogest (day/animal) (day 5, Example 2 Treatment group 2: 12 μg/kg·BW/day orally, 2 days): 0 animal
- Number of estrous animals at different times after stopping Altrenogest (day/animal) (day 5, Example 2 Treatment group 3: 20 μg/kg·BW/day orally, 1 day): 0 animal
- Number of estrous animals at different times after stopping Altrenogest (day/animal) (day 5, Example 2 Treatment group 4: 20 μg/kg·BW/day orally, 2 days): 0 animal
- Number of estrous animals at different times after stopping Altrenogest (day/animal) (day 5, Example 2 Treatment group 5: 20 μg/kg·BW/day orally, 3 days): 2 animal
- Number of estrous animals at different times after stopping Altrenogest (day/animal) (day 5, Example 2 Treatment group 6: 20 μg/kg·BW/day orally, 5 days): 1 animal
- Number of estrous animals at different times after stopping Altrenogest (day/animal) (day 5, Example 2 Treatment group 7: 40 μg/kg·BW/day orally, 1 day): 0 animal
- Number of estrous animals at different times after stopping Altrenogest (day/animal) (day 5, Example 2 Treatment group 8: 40 μg/kg·BW/day orally, 5 days): 0 animal
- Number of estrous animals at different times after stopping Altrenogest (day/animal) (day 5.5, Example 2 Treatment group 1: 12 μg/kg·BW/day orally, 1 day): 8 animal
- Number of estrous animals at different times after stopping Altrenogest (day/animal) (day 5.5, Example 2 Treatment group 2: 12 μg/kg·BW/day orally, 2 days): 9 animal
- Number of estrous animals at different times after stopping Altrenogest (day/animal) (day 5.5, Example 2 Treatment group 3: 20 μg/kg·BW/day orally, 1 day): 7 animal
- Number of estrous animals at different times after stopping Altrenogest (day/animal) (day 5.5, Example 2 Treatment group 4: 20 μg/kg·BW/day orally, 2 days): 8 animal
